# pIC50: −log10 of the molar value.
# Key:
# [1] = Cytotoxicity against human A375P cells at 100 uM after 24 hrs by MTT assay; format: functional, cell-based
# [2] = Cytotoxicity against human A375P cells after 24 hrs by MTT assay; format: functional, cell-based
# HS27 = assay: Cytotoxicity against human HS27 cells after 24 hrs by MTT assay; format: cell-based; conditions: HS27, 24 h
# [3] = target: Serine/threonine-protein kinase B-raf (Homo sapiens, UniProt P15056, V600E); assay: Inhibition of b-Raf V600E mutant
# [4] = target: RAF proto-oncogene serine/threonine-protein kinase (Homo sapiens, UniProt P04049); assay: Inhibition of c-Raf
# RAF proto-oncogene serine/threonine-protein kinase, sequence (P04049 whole entry): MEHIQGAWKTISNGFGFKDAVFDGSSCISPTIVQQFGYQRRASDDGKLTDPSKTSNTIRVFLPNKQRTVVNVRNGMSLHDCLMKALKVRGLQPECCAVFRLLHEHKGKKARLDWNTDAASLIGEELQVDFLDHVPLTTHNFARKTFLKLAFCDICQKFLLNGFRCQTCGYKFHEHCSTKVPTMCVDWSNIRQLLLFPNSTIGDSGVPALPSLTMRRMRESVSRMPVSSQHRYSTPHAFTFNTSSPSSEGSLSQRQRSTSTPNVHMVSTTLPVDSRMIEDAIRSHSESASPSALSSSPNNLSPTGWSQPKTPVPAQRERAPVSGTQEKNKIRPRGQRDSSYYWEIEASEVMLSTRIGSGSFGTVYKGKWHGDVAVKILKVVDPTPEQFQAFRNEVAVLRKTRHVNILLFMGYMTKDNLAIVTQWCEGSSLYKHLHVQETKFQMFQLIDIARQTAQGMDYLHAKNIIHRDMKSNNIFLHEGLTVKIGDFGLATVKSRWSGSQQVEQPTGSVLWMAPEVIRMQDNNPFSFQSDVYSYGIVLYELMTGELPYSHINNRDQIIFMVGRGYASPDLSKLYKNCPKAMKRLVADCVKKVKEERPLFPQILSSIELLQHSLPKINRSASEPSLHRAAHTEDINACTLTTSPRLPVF
# Serine/threonine-protein kinase B-raf, sequence (P15056 2-766 V600E limits assumed): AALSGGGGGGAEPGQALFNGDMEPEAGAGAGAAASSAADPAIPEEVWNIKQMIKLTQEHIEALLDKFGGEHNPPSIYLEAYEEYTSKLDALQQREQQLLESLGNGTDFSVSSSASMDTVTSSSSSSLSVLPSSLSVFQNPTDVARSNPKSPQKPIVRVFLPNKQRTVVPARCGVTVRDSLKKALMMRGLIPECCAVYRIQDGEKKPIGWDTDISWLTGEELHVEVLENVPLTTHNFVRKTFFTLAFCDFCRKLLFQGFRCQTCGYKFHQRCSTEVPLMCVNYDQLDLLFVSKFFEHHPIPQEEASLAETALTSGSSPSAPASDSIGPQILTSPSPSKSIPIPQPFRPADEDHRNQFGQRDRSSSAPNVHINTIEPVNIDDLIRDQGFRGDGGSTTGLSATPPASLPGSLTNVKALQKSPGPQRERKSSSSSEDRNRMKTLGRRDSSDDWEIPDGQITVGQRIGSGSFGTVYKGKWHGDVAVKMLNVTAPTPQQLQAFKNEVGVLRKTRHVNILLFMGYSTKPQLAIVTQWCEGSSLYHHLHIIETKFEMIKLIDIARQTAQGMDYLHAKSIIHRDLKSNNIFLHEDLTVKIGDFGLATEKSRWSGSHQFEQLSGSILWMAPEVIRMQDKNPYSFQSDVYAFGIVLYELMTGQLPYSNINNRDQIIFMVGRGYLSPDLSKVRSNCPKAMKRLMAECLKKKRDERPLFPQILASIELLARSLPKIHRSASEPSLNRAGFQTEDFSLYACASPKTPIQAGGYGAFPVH
SMILES,IC50 [1],pIC50 [2],further results
CNc1ncnc2c(CNc3cc(NC(=O)c4cc(C)oc4C)ccc3C)cccc12,Not Active,–,–
CNc1ncnc2c(CNc3cc(NC(=O)c4ccc(-c5ccc(OC)cc5)o4)ccc3C)cccc12,Not Active,–,–
CNc1ncnc2c(CNc3cc(NC(=O)c4ccc(-c5cc(C(F)(F)F)ccc5Cl)o4)ccc3C)cccc12,–,4.83,–
CNc1ncnc2c(CNc3cc(NC(=O)c4ccc(Br)s4)ccc3C)cccc12,–,4.98,–
CNc1ncnc2c(CNc3cc(NC(=O)c4cc(C)on4)ccc3C)cccc12,–,5.92,–
CNc1ncnc2c(CNc3cc(NC(=O)c4cscn4)ccc3C)cccc12,–,5.72,–
CNc1ncnc2c(CNc3cc(NC(=O)c4ccc5c(c4)OCCO5)ccc3C)cccc12,–,6.86,pIC50 (HS27): 5.92
CNc1ncnc2c(CNc3cc(NC(=O)c4ccc(OC)c5ccc(OC)cc45)ccc3C)cccc12,Not Active,–,–
CNc1ncnc2c(CNc3cc(NC(=O)c4cc(=O)c5ccccc5o4)ccc3C)cccc12,–,8.22,pIC50 (HS27): 6.64; pIC50 [3]: 4.71; pIC50 [4]: 6.12
CNc1ncnc2c(CNc3cc(NC(=O)c4cc5ccccc5s4)ccc3C)cccc12,Not Active,–,–
CNc1ncnc2c(CNc3cc(NC(=O)c4cccc(C(F)(F)F)c4)ccc3C)cccc12,–,6.36,–
CNc1ncnc2c(CNc3cc(NC(=O)c4cc(C(F)(F)F)cc(C(F)(F)F)c4)ccc3C)cccc12,–,6.11,–
CNc1ncnc2c(CNc3cc(NC(=O)c4ccc(N)c(C(F)(F)F)c4)ccc3C)cccc12,Not Active,–,–
CNc1ncnc2c(CNc3cc(NC(=O)c4ccc(Cl)c(C(F)(F)F)c4)ccc3C)cccc12,–,5.01,–
CNc1ncnc2c(CNc3cc(NC(=O)c4ccc(Cl)c(-n5cnc(C)c5)c4)ccc3C)cccc12,Not Active,–,–
CNc1ncnc2c(CNc3cc(NC(=O)c4ccncc4Cl)ccc3C)cccc12,Not Active,–,–
CNc1ncnc2c(CNc3cc(NC(=O)c4ccnnc4)ccc3C)cccc12,–,4.21,–
CNc1ncnc2c(CNc3cc(NC(=O)c4cnccn4)ccc3C)cccc12,Not Active,–,–
CNC(=O)c1cc(Oc2ccc(NC(=O)Nc3ccc(Cl)c(C(F)(F)F)c3)cc2)ccn1 [SORAFENIB],–,5.25,–

# Reference: ChEMBL document CHEMBL1255536, “Synthesis of aminoquinazoline derivatives and their antiproliferative activities against melanoma cell line” (Bioorg Med Chem Lett, 2010)
